Test results: PMC4111571 (Pharmaceutical research, 2012)

Assay: Caco-2 cell monolayer bidirectional transport study
Type: in vitro ADME
Details: human, Caco-2, pH 7.4

Papp A→B at 2 h, 100 µM: 41.6 ± 2.4 ×10⁻⁶ cm/s | Papp B→A at 2 h, 100 µM: 21.3 ± 0.7 ×10⁻⁶ cm/s | efflux ratio at 2 h, 100 µM: 0.51
Structure (SMILES): CC(C)NCC(O)COc1cccc2ccccc12 (stereo not drawn) [Propranolol]
